Assays:
Type in all cases: functional
Staphylococcus aureus = assay: Antibacterial activity against vancomycin resistant Staphylococcus aureus 10 assessed as reduction in microbial growth by CLSI based broth microdilution method
Streptococcus pneumoniae = assay: Antibacterial activity against Streptococcus pneumoniae ATCC 700677 assessed as reduction in microbial growth by CLSI based broth microdilution method
Clostridioides difficile [1] = assay: Antibacterial activity against Clostridioides difficile ATCC BAA1870 assessed as reduction in microbial growth incubated for 48 hrs by broth microdilution method
Clostridioides difficile [2] = assay: Antibacterial activity against Clostridioides difficile NR-32895 assessed as reduction in microbial growth incubated for 48 hrs by broth microdilution method
Clostridioides difficile [3] = assay: Antibacterial activity against Clostridioides difficile NR-32889 assessed as reduction in microbial growth incubated for 48 hrs by broth microdilution method
Clostridioides difficile [4] = assay: Antibacterial activity against Clostridioides difficile NR-32903 assessed as reduction in microbial growth incubated for 48 hrs by broth microdilution method
Clostridioides difficile [5] = assay: Antibacterial activity against Clostridioides difficile NR-32904 assessed as reduction in microbial growth incubated for 48 hrs by broth microdilution method
Clostridioides difficile [6] = assay: Antibacterial activity against Clostridioides difficile NR-13427 assessed as reduction in microbial growth incubated for 48 hrs by broth microdilution method
Clostridioides difficile [7] = assay: Antibacterial activity against Clostridioides difficile NR-13436 assessed as reduction in microbial growth incubated for 48 hrs by broth microdilution method
Clostridioides difficile [8] = assay: Antibacterial activity against Clostridioides difficile NR-49277 assessed as reduction in microbial growth incubated for 48 hrs by broth microdilution method
Clostridioides difficile [9] = assay: Antibacterial activity against Clostridioides difficile NR-49278 assessed as reduction in microbial growth incubated for 48 hrs by broth microdilution method
Clostridioides difficile [10] = assay: Antibacterial activity against Clostridioides difficile NR-49279 assessed as reduction in microbial growth incubated for 48 hrs by broth microdilution method
Clostridioides difficile [11] = assay: Antibacterial activity against Clostridioides difficile NR-49282 assessed as reduction in microbial growth incubated for 48 hrs by broth microdilution method
Clostridioides difficile [12] = assay: Antibacterial activity against Clostridioides difficile NR-49283 assessed as reduction in microbial growth incubated for 48 hrs by broth microdilution method
Clostridioides difficile [13] = assay: Antibacterial activity against Clostridioides difficile NR-49284 assessed as reduction in microbial growth incubated for 48 hrs by broth microdilution method
Clostridioides difficile [14] = assay: Antibacterial activity against Clostridioides difficile NR-49285 assessed as reduction in microbial growth incubated for 48 hrs by broth microdilution method
Clostridioides difficile [15] = assay: Antibacterial activity against Clostridioides difficile NR-49286 assessed as reduction in microbial growth incubated for 48 hrs by broth microdilution method
Clostridioides difficile [16] = assay: Antibacterial activity against Clostridioides difficile NR-49287 assessed as reduction in microbial growth incubated for 48 hrs by broth microdilution method
Clostridioides difficile [17] = assay: Antibacterial activity against Clostridioides difficile NR-49288 assessed as reduction in microbial growth incubated for 48 hrs by broth microdilution method
Clostridioides difficile [18] = assay: Antibacterial activity against Clostridioides difficile NR-49291 assessed as reduction in microbial growth incubated for 48 hrs by broth microdilution method
Clostridioides difficile [19] = assay: Antibacterial activity against Clostridioides difficile NR-49294 assessed as reduction in microbial growth incubated for 48 hrs by broth microdilution method
Clostridioides difficile [20] = assay: Antibacterial activity against Clostridioides difficile ATCC 43255 assessed as reduction in microbial growth incubated for 48 hrs by broth microdilution method
Clostridioides difficile [21] = assay: Antibacterial activity against Clostridioides difficile HM-88 assessed as reduction in microbial growth incubated for 48 hrs by broth microdilution method
Clostridioides difficile [22] = assay: Bactericidal activity against Clostridioides difficile NR-32895 assessed as reduction in microbial growth by broth microdilution method
Clostridioides difficile [23] = assay: Bactericidal activity against Clostridioides difficile NR-32904 assessed as reduction in microbial growth by broth microdilution method
Clostridioides difficile [24] = assay: Bactericidal activity against Clostridioides difficile NR-49278 assessed as reduction in microbial growth by broth microdilution method
Clostridioides difficile [25] = assay: Bactericidal activity against Clostridioides difficile NR-49284 assessed as reduction in microbial growth by broth microdilution method
Clostridioides difficile [26] = assay: Bactericidal activity against Clostridioides difficile ATCC BAA1870 assessed as reduction in microbial growth by broth microdilution method
Clostridioides difficile [27] = assay: Bactericidal activity against Clostridioides difficile ATCC 43255 assessed as reduction in microbial growth by broth microdilution method
Bacteroides fragilis [28] = assay: Antibacterial activity against Bacteroides fragilis HM 20 assessed as reduction in microbial growth incubated for 48 hrs by broth microdilution method
Bacteroides fragilis [29] = assay: Antibacterial activity against Bacteroides fragilis HM 709 assessed as reduction in microbial growth incubated for 48 hrs by broth microdilution method
Bacteroides fragilis [30] = assay: Antibacterial activity against Bacteroides fragilis HM 718 assessed as reduction in microbial growth incubated for 48 hrs by broth microdilution method
Bacteroides fragilis [31] = assay: Antibacterial activity against Bacteroides fragilis HM 719 assessed as reduction in microbial growth incubated for 48 hrs by broth microdilution method
Bifidobacterium breve [32] = assay: Antibacterial activity against Bifidobacterium breve HM 412 assessed as reduction in microbial growth incubated for 48 hrs by broth microdilution method
Bifidobacterium longum = assay: Antibacterial activity against Bifidobacterium longum HM 846 assessed as reduction in microbial growth incubated for 48 hrs by broth microdilution method
[33] = system: Bifidobacterium angulatum; assay: Antibacterial activity against Bifidobacterium angulatum HM 1189 assessed as reduction in microbial growth incubated for 48 hrs by broth microdilution method
Bifidobacterium breve [34] = assay: Antibacterial activity against Bifidobacterium breve HM1120 assessed as reduction in microbial growth incubated for 48 hrs by broth microdilution method
Lactobacillus gasseri [35] = assay: Antibacterial activity against Lactobacillus gasseri HM 403 assessed as reduction in microbial growth incubated for 48 hrs by broth microdilution method
Lactobacillus gasseri [36] = assay: Antibacterial activity against Lactobacillus gasseri HM 407 assessed as reduction in microbial growth incubated for 48 hrs by broth microdilution method
Lactobacillus crispatus [37] = assay: Antibacterial activity against Lactobacillus crispatus HM 103 assessed as reduction in microbial growth incubated for 48 hrs by broth microdilution method
Lactobacillus crispatus [38] = assay: Antibacterial activity against Lactobacillus crispatus HM 420 assessed as reduction in microbial growth incubated for 48 hrs by broth microdilution method

SMILES: CN[C@H](CC(C)C)C(=O)N[C@H]1C(=O)N[C@@H](CC(N)=O)C(=O)N[C@H]2C(=O)N[C@H]3C(=O)N[C@H](C(=O)N[C@H](C(=O)O)c4cc(O)cc(O)c4-c4cc3ccc4O)[C@H](O)c3ccc(c(Cl)c3)Oc3cc2cc(c3O[C@@H]2O[C@H](CO)[C@@H](O)[C@H](O)[C@H]2O[C@H]2C[C@](C)(N)[C@H](O)[C@H](C)O2)Oc2ccc(cc2Cl)[C@H]1O [VANCOMYCIN]
- MIC (Staphylococcus aureus): 32 µg/mL
- MIC (Streptococcus pneumoniae): 2 µg/mL
- MIC (Clostridioides difficile [1]): 1 µg/mL
- MIC (Clostridioides difficile [2]): 2 µg/mL
- MIC (Clostridioides difficile [3]): 2 µg/mL
- MIC (Clostridioides difficile [4]): 0.5 µg/mL
- MIC (Clostridioides difficile [5]): 0.5 µg/mL
- MIC (Clostridioides difficile [6]): 2 µg/mL
- MIC (Clostridioides difficile [7]): 0.5 µg/mL
- MIC (Clostridioides difficile [8]): 0.5 µg/mL
- MIC (Clostridioides difficile [9]): 0.5 µg/mL
- MIC (Clostridioides difficile [10]): 0.25 µg/mL
- MIC (Clostridioides difficile [11]): 0.25 µg/mL
- MIC (Clostridioides difficile [12]): 0.5 µg/mL
- MIC (Clostridioides difficile [13]): 0.5 µg/mL
- MIC (Clostridioides difficile [14]): 0.5 µg/mL
- MIC (Clostridioides difficile [15]): 0.25 µg/mL
- MIC (Clostridioides difficile [16]): 1 µg/mL
- MIC (Clostridioides difficile [17]): 0.5 µg/mL
- MIC (Clostridioides difficile [18]): 0.5 µg/mL
- MIC (Clostridioides difficile [19]): 0.25 µg/mL
- MIC (Clostridioides difficile [20]): 0.5 µg/mL
- MIC (Clostridioides difficile [21]): 0.5 µg/mL
- MBC (Clostridioides difficile [22]): 2 µg/mL
- MBC (Clostridioides difficile [23]): 0.5 µg/mL
- MBC (Clostridioides difficile [24]): 0.5 µg/mL
- MBC (Clostridioides difficile [25]): 0.5 µg/mL
- MBC (Clostridioides difficile [26]): 2 µg/mL
- MBC (Clostridioides difficile [27]): 1 µg/mL
- MIC (Bacteroides fragilis [28]): 64 µg/mL
- MIC (Bacteroides fragilis [29]): 64 µg/mL
- MIC (Bacteroides fragilis [30]): > 64 µg/mL
- MIC (Bacteroides fragilis [31]): > 64 µg/mL
- MIC (Bifidobacterium breve [32]): 1 µg/mL
- MIC (Bifidobacterium longum): 0.5 µg/mL
- MIC [33]: 1 µg/mL
- MIC (Bifidobacterium breve [34]): 1 µg/mL
- MIC (Lactobacillus gasseri [35]): 2 µg/mL
- MIC (Lactobacillus gasseri [36]): 4 µg/mL
- MIC (Lactobacillus crispatus [37]): 1 µg/mL
- MIC (Lactobacillus crispatus [38]): 1 µg/mL

SMILES: CCc1c(Cl)c(O)c(Cl)c(O)c1C(=O)O[C@H]1[C@H](O)[C@H](OC)[C@H](OC/C2=C\C=C\C[C@H](O)/C(C)=C/[C@H](CC)[C@@H](O[C@@H]3OC(C)(C)[C@@H](OC(=O)C(C)C)[C@H](O)[C@@H]3O)/C(C)=C/C(C)=C/C[C@@H]([C@@H](C)O)OC2=O)O[C@@H]1C [FIDAXOMICIN]
- MIC (Clostridioides difficile [2]): 0.03 µg/mL
- MIC (Clostridioides difficile [3]): 0.03 µg/mL
- MIC (Clostridioides difficile [4]): 0.06 µg/mL
- MIC (Clostridioides difficile [5]): 0.06 µg/mL
- MIC (Clostridioides difficile [6]): 0.06 µg/mL
- MIC (Clostridioides difficile [7]): 0.06 µg/mL
- MIC (Clostridioides difficile [8]): 0.06 µg/mL
- MIC (Clostridioides difficile [9]): 0.06 µg/mL
- MIC (Clostridioides difficile [10]): 0.125 µg/mL
- MIC (Clostridioides difficile [11]): 0.06 µg/mL
- MIC (Clostridioides difficile [12]): 0.06 µg/mL
- MIC (Clostridioides difficile [13]): 0.06 µg/mL
- MIC (Clostridioides difficile [14]): 0.06 µg/mL
- MIC (Clostridioides difficile [15]): 0.125 µg/mL
- MIC (Clostridioides difficile [16]): 0.125 µg/mL
- MIC (Clostridioides difficile [17]): 0.03 µg/mL
- MIC (Clostridioides difficile [18]): 0.125 µg/mL
- MIC (Clostridioides difficile [19]): 0.06 µg/mL
- MIC (Clostridioides difficile [20]): 0.03 µg/mL
- MIC (Clostridioides difficile [21]): 0.015 µg/mL
- MBC (Clostridioides difficile [22]): 0.06 µg/mL
- MBC (Clostridioides difficile [23]): 0.06 µg/mL
- MBC (Clostridioides difficile [24]): 0.125 µg/mL
- MBC (Clostridioides difficile [25]): 0.06 µg/mL
- MBC (Clostridioides difficile [26]): 0.25 µg/mL
- MBC (Clostridioides difficile [27]): 0.06 µg/mL
- MIC (Bacteroides fragilis [28]): > 64 µg/mL
- MIC (Bacteroides fragilis [29]): > 64 µg/mL
- MIC (Bacteroides fragilis [30]): > 64 µg/mL
- MIC (Bacteroides fragilis [31]): > 64 µg/mL
- MIC (Bifidobacterium breve [32]): ≤ 0.06 µg/mL
- MIC (Bifidobacterium longum): ≤ 0.06 µg/mL
- MIC [33]: ≤ 0.06 µg/mL
- MIC (Bifidobacterium breve [34]): ≤ 0.06 µg/mL
- MIC (Lactobacillus gasseri [35]): 1 µg/mL
- MIC (Lactobacillus gasseri [36]): 1 µg/mL
- MIC (Lactobacillus crispatus [37]): 0.5 µg/mL
- MIC (Lactobacillus crispatus [38]): 2 µg/mL
